Test results published in US7598028B2, “Compositions and methods for detecting and treating prostate disorders” (The Regents of the University of Michigan, priority 2006, dated 2009).

Assays:
Type in all cases: cell-based, human
N15C6 cells = experiment: Migratory/invasive response to CXCL5, N15C6 (contemplated); settings: 2 hours pre-treatment: 100 nM wortmannin, 20 uM LY294002a or 10 mM tyrphostin A9
Experimental: (§1) PC3 cells invaded through Matrigel in response to both CXCL5 and CXCL12. In experiments conducted during the development of embodiments for the present invention, the effect for CXCL12 was abrogated when the cells were pre-treated with antibody against the CXCR4 receptor but not when the cells were treated with the IgG isotype control. […] It is contemplated that PI3K-mediated FAK activation is involved in CXCL5-stimulated epithelial cell migration. Protein purified from cells exposed to CXCL5 using Western blot analysis and antibodies to FAK, Crk, p130Cas, and the phospho-forms of these proteins will be examined. It is contemplated that PI3K signaling involvement in the migratory/invasive response to cytokine stimulation by CXCL5 occurs through, for example, phosphorylation of FAK, Crk and p130Cas. It is contemplated that inhibition of downstream PI3K signaling abrogates the migratory/invasive response of CXCL5. For example, it is contemplated that N15C6 or LNCaP cells pre-treated with PI3K inhibitors (e.g., 100 nM wortmannin or 20 uM LY294002a) or 10 mM of the RAFTK/Pyk2 inhibitor tyrphostin A9 for 2 hours, then exposed to CXCL5 previously shown to stimulate the migratory/invasive response, for 2 hours, abroagates the migratory/invasive response of CXCL5.

LNCaP cells = experiment: Migratory/invasive response to CXCL5, LNCaP (contemplated); settings: 2 hours pre-treatment: 100 nM wortmannin, 20 uM LY294002a or 10 mM tyrphostin A9
Experimental: as §1

[1] = system: LNCaP prostate epithelial cells; experiment: Proliferation assay (cell counts), LNCaP; settings: add back of exogenous chemokine, 96 hours
Experimental: (§2) Proliferation assays. Cellular proliferation was assessed after plating cells at 50 000 cell/well in triplicate in six-well plates and counting cells after 24 and 96 h of incubation in complete media, serum-free media or serum-free prostate stromal fibroblast conditioned media, as described previously (Macoska J A, et al., (2004) Cancer Genet. Cytogenet. 154, 36-43; incorporated herein by reference in its entirety). Averages and standard deviations of cell number were calculated for each time point under each media condition. To assess the effects of exogenous CXCL12 on cellular proliferation, recombinant human SDF1 alpha/CXCL12 (R & D Systems, 350-NS) was added at the desired concentration in 1 mL SF HIE (or 1 mL SF HIE alone for control) to each well. The cells were counted at 24 and 96 h growth and re-fed at 48 and 72 h growth. Cell counts were normalized to 50 000 cells at 24 h to account for any plating discrepancies.
(§3) Proliferation Assays. Cellular proliferation was assessed after plating cells at 50,000 cell/well in triplicate in six well plates and counting cells after 24 and 96 hours of incubation as described previously (see, e.g., Macoska J A, et al., 2004 Cancer Genet. Cytogenet. 154, 36-43; incorporated herein by reference in its entirety). To assess the effects of exogenous CXCL12 on cellular proliferation, recombinant human SDF1 alpha/CXCL12 (R&D Systems, 350-NS) was added at the desired concentration in 1 ml SF HIE (or 1 ml SF HIE alone for control) to each well. The cells were re-fed at 48 and 72 hours growth and counted at 24 and 96 hours growth. Cell counts were normalized to 50,000 cells at 24 hours to account for any plating discrepancies. Averages and standard deviations of cell number were calculated for each time point under each media condition. Experiments utilizing U0126 were performed as above, except that cells were treated after plating for 2 hours with either DMSO (vehicle) or 5 uM U0126 before addition of CXCL12. Cells were maintained in media containing DMSO or U0126 for the entirety of the experiment. For the antibody blockade experiments, cells were plated at 10,000 cells per well in triplicate in 24 well dishes and pre-incubated with mouse IgG2aκ (BD Pharmingen 555571) or mouse anti-CXCR4 (BD Pharmingen 555971) at 1 ug/ml for 1 hour prior to CXCL12 addition. Cells were maintained in media containing appropriate antibodies for the entirety of the experiment, and cells were counted at 24 and 96 hours as above.
(§4) Proliferation Assays. Cellular proliferation was assessed after plating cells at 50,000 cell/well in triplicate in six well plates and counting cells after 24 and 96 hours of incubation as described previously (see, e.g., Begley L, et al., Genes Chromosomes Cancer. 2006 February; 45(2): 136-46; herein incorporated by reference in its entirety). To assess the effects of exogenous CXCL5 on cellular proliferation, recombinant human CXCL5 (R&D Systems, 254-X) was added at the desired concentration in 2 ml SF media (or 2 ml SF media alone for control) to each well. The cells were re-fed at 24 hours growth and counted at 24 and 96 hours growth. Cell counts were normalized to 50,000 cells at 24 hours to account for any plating discrepancies. Averages and standard deviations of cell number were calculated for each time point under each media condition. For the antibody blockade experiments, 10,000 cells per well were plated in triplicate in 24 well dishes and preincubated with mouse anti-human CXCR2 (Biosource AHR1532X) or mouse antihuman CXCR4 (BD Pharmingen 555971) at 1 ug/ml for 1 hour prior to CXCL5 addition. Cells were maintained in media containing appropriate antibodies for the entirety of the experiment and were counted at 24 and 96 hours as above.

[2] = system: N1 prostate fibroblast cells; experiment: Proliferation assay, add back, N1 fibroblasts; settings: add back of exogenous chemokine, 96 hours
Description: FIG. 6C describes how CXCL1, CXCL5, CXCL6, and CXCL12 stimulate N15C6 prostate epithelial cell proliferation, N1 prostate fibroblast cell proliferation, and LNCaP prostate epithelial cell proliferation compared to serum-free (SF HIE) media alone. “Add back” assays were next performed to determine whether the addition of exogenous CXCL1, CXCL5, CXCL6, and CXCL12 to defined, serum-free media induced […] or LNCaP prostate epithelial or N1 fibroblast cell proliferation. For these and all experiments utilizing N15C6 and LNCaP cells, the N15C6 and N1 cells were used between passage 35-45, and LNCaP cells between passages 25-35, for consistency. All recombinant CXC proteins were obtained from R&D systems (e.g., CXCL1, #275-GR, CXCL5, #254-X; CXCL6, #333-GC, and SDF1 alpha/CXCL12, #350-NS). Cells were plated at 50,000 cells/well in triplicate, treated for 96 hours, and counted. […] Moreover, the concentrations for CXCL1, CXCL5, CXCL6 and CXCL12 observed to be growth-stimulatory for prostate epithelial cells were similar to those secreted into the media by older prostate stromal fibroblasts (see, e.g., FIGS. 6A and 6B).

[3] = system: N15C6 prostate epithelial cells; experiment: Proliferation assay (cell counts), N15C6; settings: add back of exogenous chemokine, 96 hours
Experimental: as §2, §3, §4

ERK ½ = experiment: Western blot, ERK phosphorylation in LNCaP cells; settings: 100 ng/ml EGF or 50 μM CXCL12 (FIG. 19C)
Experimental: Western Blot Analysis. Cells were lysed, proteins resolved by electrophoresis, and electroblotting was carried out as described previously (see, e.g.; Chaib H, et al., 2001 Cancer Res. 61, 2390-2394; incorporated herein by reference in its entirety). Proteins were detected using antibodies against phospho-ERK½ (Cell Signaling #9101), total ERK½ (Cell Signaling #9102), CXCR4 (Abcam #ab2074), Elk-1 (Cell Signaling #9182), Phospho Elk-1 (Cell Signaling #9181), or beta-actin (Santa Cruz #sc-1615), in conjunction with an ECL detection system.
Western Blot and Protein Analysis. Cells were lysed, proteins resolved by electrophoresis, and electroblotting was carried out as described previously except that 20 ug protein was electrophoresed per gel lane for N15C6 cells and 100 ug protein for LNCaP cells (see, e.g., Begley L, et al., Aging Cell. 2005 December; 4(6):291-8; Begley L A, et al., J Biol. Chem. 2007 Sep. 14; 282(37):26767-74; each herein incorporated by reference in their entireties). Proteins were detected using antibodies against phospho-ERK½ (Cell Signaling #9101), total ERK½ (Cell Signaling, #9102), phospho-p65, (Rockland #100-401-264), total p65 (Rockland #100-4165), STAT3 (9139), phospho-STAT3 (9138), beta-actin (Santa Cruz #sc-1615), or tubulin (Upstate, #DM1A) in conjunction with an ECL detection system. Secondary antibodies included goat anti-rabbit (Cell Signaling, #7074) and goat anti-mouse (Santa Cruz, #SC-2005), and both were used at a 1:5000 concentration. Immunoblots shown are representative of triplicate experiments. Densitometric quantitation of immunoblot films was accomplished by scanning the original films and converting the .tiff files to grayscale. Images were inverted, and mean band intensities were measured using ImageJ (www, followed by, .nih.gov). The mean intensity of adjacent background was also measured for each band and subtracted from band intensity.

Row | Compound | effect on migratory/invasive response of CXCL5 (contemplated) (N15C6 cells) | effect on migratory/invasive response of CXCL5 (contemplated) (LNCaP cells) | cell proliferation compared to serum-free (SF HIE) media alone [1] | cell proliferation compared to serum-free (SF HIE) media alone [2] | cell proliferation compared to serum-free (SF HIE) media alone [3] | ERK phosphorylation (pERK) (ERK ½)
1 | O=c1cc(N2CCOCC2)oc2c(-c3ccccc3)cccc12 [LY294002a] | abroagates | abroagates |  |  |  | 
2 | CC(C)(C)c1cc(C=C(C#N)C#N)cc(C(C)(C)C)c1O [tyrphostin A9] | abroagates | abroagates |  |  |  | 
3 | CXCL1: recombinant CXC protein from R&D systems, #275-GR |  |  | stimulate | stimulate | stimulate | 
4 | CXCL6: recombinant CXC protein from R&D systems, #333-GC |  |  | stimulate | stimulate | stimulate | 
5 | EGF: epidermal growth factor, used at 100 ng/ml |  |  |  |  |  | minimal
